We go through 8 molecules from publication PMC8482815, “Targeting Host Glycolysis as a Strategy for Antimalarial Development” (Frontiers in Cellular and Infection Microbiology, 2021).

Structures are written as SMILES. Where two headings read alike, the source gives them in different places.

One test concerns P. falciparum strain 3D7. Description: Plasmodium falciparum growth inhibition assay (Picogreen DNA content, three-day incubation). Format: cell-based. The note with it: for S.I. + pyruvate (Supplemental Table 4): MetHb EC50 / parasite EC50, with pyruvate; for S.I. - pyruvate (Supplemental Table 4): MetHb EC50 / parasite EC50, without pyruvate; for S.I. Fold Change (Supplemental Table 4): change in S.I. with versus without pyruvate. As for the experimental part:
(§1) Banked blood (Saint Louis Children’s Hospital) and fresh blood [healthy donors] was washed and stored at 50% hematocrit at 4°C up to 1 month past the clinical expiration date and collection date, respectively. Parasite strains provided by the Malaria Research and Reference Reagent Resource Center (MR4) as follows: 3D7 (MRA-102); K1 (MRA-159); D10 (MRA-201); and IPC-5202 (MRA-1240). Unless indicated, erythrocytes were cultured as previously described at 2% hematocrit in complete media (incomplete media supplemented with 27mM sodium bicarbonate, 11mM glucose, 5mM HEPES, 1mM sodium pyruvate, 0.37mM hypoxanthine, 0.01mM thymidine, 10µg/mL gentamicin, and 0.5% Albumax I (Thermo-Fisher) under 5% O2/5% CO2/90% N2 atmosphere at 37°C ([Guggisberg et al., 2014]).
Asynchronous cultures diluted to 1% parasitemia in 100μL wells were subjected to drug dilutions, solvent controls, and untreated uninfected erythrocyte controls in technical duplicates. Following a three-day incubation, DNA content was quantified using Picogreen (Life Technologies), as previously described ([Corbett et al., 2004]). Half-maximal effective concentrations (EC50) were determined from nonlinear regression of three biological replicates (GraphPad Prism).

Another test deals with human erythrocytes. Nature of the test: Detection and quantification of MetHb formation in cultured erythrocytes. Format: cell-based. Conditions: MetHb formation, 500 = highest concentration tested. On the procedure:
as §1
MetHb was detected by measuring absorbance in the 630-640nm range, which is specific from other hemoglobin subforms (oxyhemoglobin, deoxyhemoglobin, and carboxyhemoglobin). Supernatants were removed and erythrocyte pellets were fully lysed and diluted, as described above. The absorption peak for oxyhemoglobin (575nm) and MetHb (630nm) were measured and the EC50 of MetHb formation was determined using non-linear regression analysis (GraphPad Prism).

[1] abbreviates: P. falciparum growth, with pyruvate, read-out: Parasite EC50 + pyruvate (Supplemental Table 4).
[2] abbreviates: P. falciparum growth, without pyruvate, 500 = highest concentration tested, read-out: Parasite EC50 - pyruvate (Supplemental Table 4).
The mark [3] stands for this setting: with pyruvate, read-out: MetHb EC50 + pyruvate (Supplemental Table 4).
The mark [4] stands for this setting: without pyruvate, read-out: MetHb EC50 - pyruvate (Supplemental Table 4).

Consider `CC(C)OC(=O)OCOP(=O)(OCOC(=O)OC(C)C)C1CCCN(O)C1=O` (stereo not shown) [Compound J52], for which the “S.I. + pyruvate (Supplemental Table 4)” value in the test on P. falciparum strain 3D7 was determined as 0.3. Besides, the “S.I. - pyruvate (Supplemental Table 4)” value in the test with P. falciparum strain 3D7 was found to be 0.3. The EC50 with P. falciparum strain 3D7 (setting [1]) turned out to be 1.6 ± 4 µM; in the test with P. falciparum strain 3D7 (setting [2]) it was 2.9 ± 0.4 µM; with human erythrocytes (setting [3]) it was 0.49 ± 0.02 µM; with human erythrocytes (setting [4]), 0.77 ± 0.04 µM. Also, the “S.I. Fold Change (Supplemental Table 4)” value with P. falciparum strain 3D7 came out at 1.2.

`O=C1C(P(=O)(O)O)CCN1O` (stereo not shown) [DeoxySF-2312]: the “S.I. + pyruvate (Supplemental Table 4)” value with P. falciparum strain 3D7 amounted to 16.7. In addition, in the test on P. falciparum strain 3D7, the “S.I. - pyruvate (Supplemental Table 4)” value is 6.3. Also, the EC50 in the test with P. falciparum strain 3D7 (setting [1]) was 30 ± 9.7 µM; with P. falciparum strain 3D7 (setting [2]), 80 ± 2 µM; in the test with human erythrocytes (setting [3]), greater than 500 µM; in the test on human erythrocytes (setting [4]), greater than 500 µM. Also, the “S.I. Fold Change (Supplemental Table 4)” value in the test with P. falciparum strain 3D7 is given as 2.7. In the test with P. falciparum strain 3D7 (parasite growth versus MetHb formation), the “selectivity for antiparasitic activity over erythrocyte toxicity (in words)” value is listed as “notably selective”.

As for `CC1(P(=O)(O)O)CC(O)N(O)C1=O` (stereo not shown) [MethylSF-2312], the “S.I. + pyruvate (Supplemental Table 4)” value with P. falciparum strain 3D7 came to 19.2. Further, the “S.I. - pyruvate (Supplemental Table 4)” value in the test on P. falciparum strain 3D7 was determined as 3.8. The EC50 is 26 ± 2.9 µM in the test with P. falciparum strain 3D7 (setting [1]), 130 ± 3.5 µM in the test with P. falciparum strain 3D7 (setting [2]), greater than 500 µM in the test on human erythrocytes (setting [3]) and greater than 500 µM in the test on human erythrocytes (setting [4]). Moreover, the “S.I. Fold Change (Supplemental Table 4)” value in the test on P. falciparum strain 3D7 stood at 5.1.

`O=C1C(P2(=O)NCCCO2)CCCN1O` (stereo not shown) [PKM J45]: the “S.I. + pyruvate (Supplemental Table 4)” value in the test on P. falciparum strain 3D7 turned out to be 5.3. In addition, the “S.I. - pyruvate (Supplemental Table 4)” value in the test on P. falciparum strain 3D7 is 14.3. The EC50 in the test on P. falciparum strain 3D7 (setting [1]) is 94 ± 4.7 µM; with P. falciparum strain 3D7 (setting [2]), 35 ± 3.1 µM; with human erythrocytes (setting [3]), greater than 500 µM; with human erythrocytes (setting [4]), greater than 500 µM. Besides, the “S.I. Fold Change (Supplemental Table 4)” value in the test on P. falciparum strain 3D7 turned out to be 0.4.

On to `CC(C)OC(=O)C(C)NP(=O)(NC(C)C(=O)OC(C)C)C1CCCN(O)C1=O` (stereo not shown) [SDR4], for which the “S.I. + pyruvate (Supplemental Table 4)” value in the test with P. falciparum strain 3D7 was 6.8. For the same molecule, the “S.I. - pyruvate (Supplemental Table 4)” value in the test on P. falciparum strain 3D7 is 15.6. Moreover, the EC50 with P. falciparum strain 3D7 (setting [1]) is 73 ± 8.7 µM; in the test on P. falciparum strain 3D7 (setting [2]), 32 ± 2.4 µM; in the test with human erythrocytes (setting [3]), greater than 500 µM; in the test with human erythrocytes (setting [4]), greater than 500 µM. Moreover, the “S.I. Fold Change (Supplemental Table 4)” value in the test with P. falciparum strain 3D7 stood at 0.4.

Take `CC(C)OC(=O)C(C)NP(=O)(Oc1ccccc1)C1CCCN(O)C1=O` (stereo not shown) [SDR6]: the “S.I. + pyruvate (Supplemental Table 4)” value in the test with P. falciparum strain 3D7 is 8.3. The “S.I. - pyruvate (Supplemental Table 4)” value in the test on P. falciparum strain 3D7 came out at 10.4. Also, the EC50 in the test on P. falciparum strain 3D7 (setting [1]) is 60 ± 13 µM; in the test on P. falciparum strain 3D7 (setting [2]), 48 ± 2.8 µM; in the test with human erythrocytes (setting [3]), greater than 500 µM; with human erythrocytes (setting [4]), greater than 500 µM. Moreover, the “S.I. Fold Change (Supplemental Table 4)” value in the test on P. falciparum strain 3D7 amounted to 0.8.

In the case of `CC(=O)ON1CCCC(P(=O)(OCOC(=O)C(C)(C)C)OCOC(=O)C(C)(C)C)C1=O` (stereo not shown) [SDR23], the “S.I. + pyruvate (Supplemental Table 4)” value in the test with P. falciparum strain 3D7 is on record as 1.6. For the same molecule, the “S.I. - pyruvate (Supplemental Table 4)” value in the test on P. falciparum strain 3D7 came out at 0.6. Moreover, the EC50 in the test on P. falciparum strain 3D7 (setting [1]) was found to be 1.6 ± 0.11 µM; with P. falciparum strain 3D7 (setting [2]) it was 2.1 ± 0.25 µM; with human erythrocytes (setting [3]), 2.5 ± 0.34 µM; in the test on human erythrocytes (setting [4]), 1.3 ± 0.07 µM. Moreover, the “S.I. Fold Change (Supplemental Table 4)” value in the test on P. falciparum strain 3D7 is recorded as 2.5.

Regarding `O=C1C(P(=O)(O)O)CC(O)N1O` (stereo not shown) [SF-2312, reference compound], in the test with P. falciparum strain 3D7, the “S.I. + pyruvate (Supplemental Table 4)” value turned out to be 18.5. The “S.I. - pyruvate (Supplemental Table 4)” value in the test with P. falciparum strain 3D7 is 2.8. Also, the EC50 in the test with P. falciparum strain 3D7 (setting [1]) is 27 ± 2 µM; in the test with P. falciparum strain 3D7 (setting [2]), 180 ± 9.3 µM; in the test with P. falciparum strain 3D7 (asexual P. falciparum, phosphonates, read-out: half maximal effective concentrations (EC50s), parasite growth), greater than 15 µM; in the test on human erythrocytes (setting [3]), greater than 500 µM; in the test on human erythrocytes (setting [4]) it was greater than 500 µM. In addition, the “S.I. Fold Change (Supplemental Table 4)” value in the test on P. falciparum strain 3D7 was found to be 6.6.
